According to patent publication US9108983B2, “Pyrrole compounds, a process for their preparation and pharmaceutical compositions containing them” (LES LABORATOIRES SERVIER, priority 2013, dated 2015):
Where a name gives a salt, the structure may show the parent alone. Read-outs that look alike come from different tables or passages of the source.

Columns and labels:
[1] = target: Bcl-2 protein (histag-Bcl-2, UniProtKB P10415) (Homo sapiens (Human), UniProt P10415); test: Inhibition of Bcl-2 by the fluorescence polarisation technique; type: binding; conditions: incubation for 2 hours, read-out: IC50 (nM) Bcl-2 FP
Sequence of Bcl-2 protein (P10415 whole entry): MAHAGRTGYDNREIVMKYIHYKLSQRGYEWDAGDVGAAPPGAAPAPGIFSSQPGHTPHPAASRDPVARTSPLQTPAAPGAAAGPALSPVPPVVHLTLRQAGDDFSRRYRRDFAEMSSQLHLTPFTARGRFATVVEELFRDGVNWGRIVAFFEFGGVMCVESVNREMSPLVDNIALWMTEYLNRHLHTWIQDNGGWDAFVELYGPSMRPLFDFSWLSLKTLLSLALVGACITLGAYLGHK
Description: The fluorescence polarisation tests were carried out on microplates (384 wells). The Bcl-2 protein, labelled (histag-Bcl-2 such that Bcl-2 corresponds to the UniProtKB® primary accession number: P10415), at a final concentration of 2.50×10^−8 M, is mixed with a fluorescent peptide (Fluorescein-[…]), at a final concentration of 1.00×10^−8 M in a buffer solution (Hepes 10 mM, NaCl 150 mM, Tween20 0.05%, pH 7.4), in the presence or absence of increasing concentrations of test compounds. After incubation for 2 hours, the fluorescence polarisation is measured.

[2] = test system: RS4;11 leukaemia tumour line; test: In vitro cytotoxicity (Microculture Tetrazolium Assay); type: cell-based; conditions: RS4;11 cells, exposed for 48 hours, cell viability, read-out: IC50 (nM) MTT RS4;11
Description: The cytotoxicity studies were carried out on the RS4;11 leukaemia tumour line.
The cells are distributed onto microplates and exposed to the test compounds for 48 hours.
The cell viability is then quantified by a colorimetric assay, the Microculture Tetrazolium Assay (Cancer Res., 1987, 47, 939-942).

Row | Compound | IC50 [1] [nM] | IC50 ([2]; Homo sapiens, RS4-11, 48 h) [nM] | IC50 [2] [nM]
1 | Cc1c(C(=O)N(c2ccccc2)c2ccc(O)cc2)cc(-c2cc(Cl)ccc2C(=O)N2Cc3ccccc3C[C@H]2CO)n1C [Example 38, 5-(5-Chloro-2-{[(3S)-3-(hydroxymethyl)-3,4-dihydroisoquinolin-2(1H)-yl]carbonyl}phenyl)-N-(4-hydroxyphenyl)-1,2-dimethyl-N-phenyl-1H-pyrrole-3-carboxamide] | 7.5 | 134 | –
2 | Cc1c(C(=O)N(c2ccc(O)cc2)c2cnc3c(ccn3C)c2)cc(-c2cc(CNC(=O)COc3ccccc3)ccc2C(=O)N2Cc3ccccc3C[C@H]2C)n1C [Example 54, N-(4-Hydroxyphenyl)-1,2-dimethyl-5-(2-{[(3R)-3-methyl-3,4-dihydroisoquinolin-2(1H)-yl]carbonyl}-5-{[(phenoxyacetyl)amino]methyl}phenyl)-N-(1-methyl-1H-pyrrolo[2,3-b]pyridin-5-yl)-1H-pyrrole-3-carboxamide] | 18 | 30.5 | –
3 | Cc1c(C(=O)N(c2ccncc2)c2ccc(O)cc2)cc(-c2cc3c(cc2C(=O)N2Cc4ccccc4C[C@H]2CN2CCOCC2)OCO3)n1C [Example 73, N-(4-Hydroxyphenyl)-1,2-dimethyl-5-(6-{[(3S)-3-(morpholin-4-ylmethyl)-3,4-dihydroisoquinolin-2(1H)-yl]carbonyl}-1,3-benzodioxol-5-yl)-N-(pyridin-4-yl)-1H-pyrrole-3-carboxamide dihydrochloride] | 8 | 42.6 | –
4 | CN1CCN(C[C@@H]2Cc3ccccc3CN2C(=O)c2ccc(Cl)cc2-c2cc(C(=O)N(c3ccc(O)cc3)c3ccc4c(ccn4C)c3)cn2C2CC2)CC1 [Example 7, 5-(5-Chloro-2-{[(3S)-3-[(4-methylpiperazin-1-yl)methyl]-3,4-dihydroisoquinolin-2(1H)-yl]carbonyl}phenyl)-1-cyclopropyl-N-(4-hydroxyphenyl)-N-(1-methyl-1H-indol-5-yl)-1H-pyrrole-3-carboxamide] | 25.6 | 90.6 | –
5 | Cc1c(C(=O)N(c2ccccc2)c2ccc(O)cc2)cc(-c2cc(Cl)ccc2C(=O)N2Cc3ccccc3C[C@H]2CN2CCOCC2)n1C [Example 17, 5-(5-Chloro-2-{[(3S)-3-(morpholin-4-ylmethyl)-3,4-dihydroisoquinolin-2(1H)-yl]carbonyl}phenyl)-N-(4-hydroxyphenyl)-1,2-dimethyl-N-phenyl-1H-pyrrole-3-carboxamide hydrochloride] | 8 | 75.2 | –
6 | Cc1c(C(=O)N(c2ccccc2)c2ccc(O)cc2)cc(-c2cc3c(cc2C(=O)N2Cc4ccccc4C[C@H]2C)OCO3)n1CCN(C)C [Example 98, 1-[2-(Dimethylamino)ethyl]-N-(4-hydroxyphenyl)-2-methyl-5-(6-{[(3R)-3-methyl-3,4-dihydroisoquinolin-2(1H)-yl]carbonyl}-1,3-benzodioxol-5-yl)-N-phenyl-1H-pyrrole-3-carboxamide hydrochloride] | 7.6 | 68.3 | –
7 | Cc1c(C(=O)N(c2ccc(O)cc2)c2cnn(C)c2)cc(-c2cc(F)c(O)cc2C(=O)N2Cc3ccccc3C[C@H]2C)n1C [Example 68, 5-(5-Fluoro-4-hydroxy-2-{[(3R)-3-methyl-3,4-dihydroisoquinolin-2(1H)-yl]carbonyl}phenyl)-N-(4-hydroxyphenyl)-1,2-dimethyl-N-(1-methyl-1H-pyrazol-4-yl)-1H-pyrrole-3-carboxamide] | 2.1 | 20.7 | –
8 | 5-(5-Fluoro-4-methoxy-2-{[(3S)-3-(morpholin-4-ylmethyl)-3,4-dihydroisoquinolin-2(1H)-yl]carbonyl}phenyl)-N-(4-hydroxyphenyl)-1,2-dimethyl-N-(1-methyl-2,3-dihydro-1H-pyrrolo[2,3-b]pyridin-5-yl)-1H-pyrrole-3-carboxamide hydrochloride [Example 210] | 8.8 | – | 47.2
9 | Cc1c(C(=O)N(C)c2ccc(O)cc2)cc(-c2ccc(CNS(=O)(=O)CCc3ccc(F)cc3)cc2C(=O)N2Cc3ccccc3C[C@H]2C)n1C [Example 59, 5-(4-[({[2-(4-Fluorophenyl)ethyl]sulphonyl}amino)methyl]-2-{[(3R)-3-methyl-3,4-dihydroisoquinolin-2(1H)-yl]carbonyl}phenyl)-N-(4-hydroxyphenyl)-N,1,2-trimethyl-1H-pyrrole-3-carboxamide] | 134 | > 600 | –

Continued, in another order:

Row | IC50 [1] [nM] | Compound | IC50 ([2]; Homo sapiens, RS4-11, 48 h) [nM] | IC50 [2] [nM]
10 | 4.5 | COc1ncc(N(C(=O)c2cc(-c3cc(Cl)ccc3C(=O)N3Cc4ccccc4C[C@H]3CN3CCOCC3)n(C)c2C)c2ccc(O)cc2)cn1 [Example 397, 5-(5-Chloro-2-{[(3S)-3-(morpholin-4-ylmethyl)-3,4-dihydroisoquinolin-2(1H)-yl]carbonyl}phenyl)-N-(4-hydroxyphenyl)-N-(2-methoxypyrimidin-5-yl)-1,2-dimethyl-1H-pyrrole-3-carboxamide] | 37.1 | –
11 | 6.9 | Cc1c(N(C(=O)c2cc(-c3cc(F)ccc3C(=O)N3Cc4ccccc4C[C@H]3CN3CCOCC3)n(C)c2C)c2ccc(O)cc2)cnn1C [Example 453, N-(1,5-Dimethyl-1H-pyrazol-4-yl)-5-(5-fluoro-2-{[(3S)-3-(morpholin-4-ylmethyl)-3,4-dihydroisoquinolin-2(1H)-yl]carbonyl}phenyl)-N-(4-hydroxyphenyl)-1,2-dimethyl-1H-pyrrole-3-carboxamide hydrochloride] | 99.9 | –
12 | 24.4 | Cc1c(C(=O)N(c2ccc(O)cc2)c2ccnc(C#N)n2)cc(-c2cc(Cl)ccc2C(=O)N2Cc3ccccc3C[C@H]2CN2CCOCC2)n1C [Example 404, 5-(5-Chloro-2-{[(3S)-3-(morpholin-4-ylmethyl)-3,4-dihydroisoquinolin-2(1H)-yl]carbonyl}phenyl)-N-(2-cyanopyrimidin-4-yl)-N-(4-hydroxyphenyl)-1,2-dimethyl-1H-pyrrole-3-carboxamide hydrochloride] | 85.5 | –
13 | 19.2 | Cc1c(C(=O)N(c2ccccc2)c2ccc(O)cc2)cc(-c2cc(Cl)ccc2C(=O)N2CCc3ccccc3C2)n1C [Example 467, 5-(5-Chloro-2-{[3,4-dihydroisoquinolin-2(1H)-yl]carbonyl}phenyl)-N-(4-hydroxyphenyl)-1,2-dimethyl-N-phenyl-1H-pyrrole-3-carboxamide] | 188 | –
14 | 18.1 | Cc1c(C(=O)N(c2ccccc2)c2cnc3c(c2)CCN3C)cc(-c2cc(Cl)ccc2C(=O)N2Cc3ccccc3C[C@H]2CN2CCOCC2)n1C [Example 129, 5-(5-Chloro-2-{[(3S)-3-(morpholin-4-ylmethyl)-3,4-dihydroisoquinolin-2(1H)-yl]carbonyl}phenyl)-1,2-dimethyl-N-(1-methyl-2,3-dihydro-1H-pyrrolo[2,3-b]-pyridin-5-yl)-N-phenyl-1H-pyrrole-3-carboxamide] | 275 | –
15 | 3.1 | Cc1c(N(C(=O)c2cc(-c3cc4c(cc3C(=O)N3Cc5ccccc5C[C@H]3CN3CCOCC3)OCCO4)n(C)c2C)c2ccc(O)cc2)cc(C#N)n1C [Example 413, N-(5-Cyano-1,2-dimethyl-1H-pyrrol-3-yl)-N-(4-hydroxyphenyl)-1,2-dimethyl-5-(7-{[(3S)-3-(morpholin-4-ylmethyl)-3,4-dihydroisoquinolin-2(1H)-yl]-carbonyl}-2,3-dihydro-1,4-benzodioxin-6-yl)-1H-pyrrole-3-carboxamide hydrochloride] | 9.43 | –
16 | 9.9 | Cc1c(C(=O)N(c2ccc(O)c(F)c2)c2cnn(C)c2)cc(-c2cc(Cl)ccc2C(=O)N2Cc3ccccc3C[C@H]2CN2CCOCC2)n1C [Example 399, 5-(5-Chloro-2-{[(3S)-3-(morpholin-4-ylmethyl)-3,4-dihydroisoquinolin-2(1H)-yl]carbonyl}phenyl)-N-(3-fluoro-4-hydroxyphenyl)-1,2-dimethyl-N-(1-methyl-1H-pyrazol-4-yl)-1H-pyrrole-3-carboxamide hydrochloride] | 155 | –
17 | 3.9 | Cc1c(C(=O)N(c2ccc(O)cc2)c2cccc(C#N)c2)cc(-c2cc(Cl)ccc2C(=O)N2Cc3ccccc3C[C@H]2CN2CCOCC2)n1C [Example 398, 5-(5-Chloro-2-{[(3S)-3-(morpholin-4-ylmethyl)-3,4-dihydroisoquinolin-2(1H)-yl]carbonyl}phenyl)-N-(3-cyanophenyl)-N-(4-hydroxyphenyl)-1,2-dimethyl-1H-pyrrole-3-carboxamide hydrochloride] | 13.4 | –
18 | 20 | Cc1c(C(=O)N(c2ccc(O)cc2)c2cnn(C)c2)cc(-c2ccc(F)cc2C(=O)N2Cc3ccccc3C[C@H]2CN2CCOCC2)n1C [Example 447, 5-(4-Fluoro-2-{[(3S)-3-(morpholin-4-ylmethyl)-3,4-dihydroisoquinolin-2(1H)-yl]carbonyl}phenyl)-N-(4-hydroxyphenyl)-1,2-dimethyl-N-(1-methyl-1H-pyrazol-4-yl)-1H-pyrrole-3-carboxamide hydrochloride] | > 600 | –
19 | 10.5 | Cc1c(N(C(=O)c2cc(-c3cc(Cl)ccc3C(=O)N3Cc4ccccc4C[C@H]3CN3CCOCC3)n(C)c2C)c2ccc(O)cc2)cn(C)c1C#N [Example 458, 5-(5-Chloro-2-{[(3S)-3-(morpholin-4-ylmethyl)-3,4-dihydroisoquinolin-2(1H)-yl]carbonyl}phenyl)-N-(5-cyano-1,4-dimethyl-1H-pyrrol-3-yl)-N-(4-hydroxyphenyl)-1,2-dimethyl-1H-pyrrole-3-carboxamide hydrochloride] | 197 | –
